# Source: patent US20170275287A1, “NOVEL N2, N4, N7, 6-TETRASUBSTITUTED PTERIDINE-2,4,7-TRIAMINE AND 2, 4, 6, 7-TETRASUBSTITUTED PTERIDINE COMPOUNDS AND METHODS OF SYNTHESIS AND USE THEREOF” (Janus Biotherapeutics, Inc., priority 2014, published 2017)
# Columns and labels:
# [1] = LogD, pH 7.4; format: physicochemical
# [2] = system: Hep-G2 cells; experiment: Cell viability, Hep-G2 cells (CEREP); format: cell-based
# Method: Preliminary screening measures were conducted by CEREP. All values fall within acceptable limits (Table 5). Solubility assays where performed by CEREP, Seattle, Wash., according to Lipinski, C. A. et al., 1997, Adv. Drug Del. Rev., 46:3-26. Protein binding assays where performed by CEREP, Seattle, Wash., according to Banker, M. J. et al., 2003, J. Pharm. Sci., 92:967-974. Permeability assays where performed by CEREP, Seattle, Wash. according to Hildalgo, I. J., 1998, Gastroenterology, 96:736-749. Metabolic stability assays where performed by CEREP, Seattle, Wash., according to Obach, R. S. et al., 1997, J. Pharmacol. Exp. Ther., 283:46-58. P-glycoprotein inhibition assays where performed by CEREP, Seattle, Wash., according to Polli, J. W. et al., 2001, J. Pharm. Exp. Ther., 299:620-628. Cell viability assays where performed by CEREP, Seattle, Wash., according to Mosmann, T., 1983, J. Immunol. Met. 65:55-62. hERG automated patch clamp assays where performed by CEREP, Seattle, Wash., according to Mathes, C., 2006, Expert Opin. Ther. Targets, 10:230-241.
# [3] = target: T1, CYP1A2 (Homo sapiens, UniProt P05177); experiment: Cytochrome p450 inhibition (CEREP); format: in vitro ADME; conditions: 10 μM
# T1 construct: CEREP (contract laboratory)
# Method: (§1) JB6121 was also tested for CYP inhibition, see Table 6 below. Assays where performed by CEREP, Seattle, Wash., according to Atkinson, A et al., 2005, Drug Metab. Dispos. 33:1637-1647.
# [4] = target: T2, CYP2C19 (Homo sapiens, UniProt P33261); experiment: Cytochrome p450 inhibition (CEREP); format: in vitro ADME; conditions: 10 μM
# T2 construct: CEREP (contract laboratory)
# Method: as §1
# [5] = target: T3, CYP2C8 (Homo sapiens, UniProt P10632); experiment: Cytochrome p450 inhibition (CEREP); format: in vitro ADME; conditions: 10 μM
# T3 construct: CEREP (contract laboratory)
# Method: as §1
# [6] = target: T4, CYP2D6 (Homo sapiens, UniProt P10635); experiment: Cytochrome p450 inhibition (CEREP); format: in vitro ADME; conditions: 10 μM
# T4 construct: CEREP (contract laboratory)
# Method: as §1
# T4 sequence (P10635 whole entry): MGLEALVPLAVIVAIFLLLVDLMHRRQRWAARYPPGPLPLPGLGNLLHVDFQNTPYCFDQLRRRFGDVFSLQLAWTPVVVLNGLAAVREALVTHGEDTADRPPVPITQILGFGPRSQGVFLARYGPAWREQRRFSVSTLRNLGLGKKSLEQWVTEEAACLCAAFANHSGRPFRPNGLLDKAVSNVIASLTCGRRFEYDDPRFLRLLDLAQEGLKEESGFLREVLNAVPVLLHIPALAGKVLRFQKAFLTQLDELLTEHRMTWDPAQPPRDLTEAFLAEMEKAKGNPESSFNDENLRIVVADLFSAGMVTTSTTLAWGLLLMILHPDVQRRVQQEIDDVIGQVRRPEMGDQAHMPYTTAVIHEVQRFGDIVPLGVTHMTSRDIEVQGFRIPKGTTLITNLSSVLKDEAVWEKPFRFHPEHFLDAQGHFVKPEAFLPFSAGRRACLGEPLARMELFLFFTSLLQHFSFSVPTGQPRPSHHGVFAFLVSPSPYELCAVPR
# T3 sequence (P10632 whole entry): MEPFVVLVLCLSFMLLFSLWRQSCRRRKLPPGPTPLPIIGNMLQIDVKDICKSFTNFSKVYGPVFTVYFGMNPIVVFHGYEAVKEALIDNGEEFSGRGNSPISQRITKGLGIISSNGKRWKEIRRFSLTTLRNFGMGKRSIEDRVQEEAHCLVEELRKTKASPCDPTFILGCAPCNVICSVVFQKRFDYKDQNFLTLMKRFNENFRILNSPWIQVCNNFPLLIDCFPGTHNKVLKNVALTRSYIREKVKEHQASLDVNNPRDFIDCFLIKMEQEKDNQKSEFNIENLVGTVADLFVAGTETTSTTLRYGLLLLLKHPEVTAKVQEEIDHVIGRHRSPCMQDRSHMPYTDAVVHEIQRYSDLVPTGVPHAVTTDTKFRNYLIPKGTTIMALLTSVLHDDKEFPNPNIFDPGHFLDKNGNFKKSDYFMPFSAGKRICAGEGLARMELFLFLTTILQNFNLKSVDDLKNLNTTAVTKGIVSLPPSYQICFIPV
# T1 sequence (P05177 whole entry): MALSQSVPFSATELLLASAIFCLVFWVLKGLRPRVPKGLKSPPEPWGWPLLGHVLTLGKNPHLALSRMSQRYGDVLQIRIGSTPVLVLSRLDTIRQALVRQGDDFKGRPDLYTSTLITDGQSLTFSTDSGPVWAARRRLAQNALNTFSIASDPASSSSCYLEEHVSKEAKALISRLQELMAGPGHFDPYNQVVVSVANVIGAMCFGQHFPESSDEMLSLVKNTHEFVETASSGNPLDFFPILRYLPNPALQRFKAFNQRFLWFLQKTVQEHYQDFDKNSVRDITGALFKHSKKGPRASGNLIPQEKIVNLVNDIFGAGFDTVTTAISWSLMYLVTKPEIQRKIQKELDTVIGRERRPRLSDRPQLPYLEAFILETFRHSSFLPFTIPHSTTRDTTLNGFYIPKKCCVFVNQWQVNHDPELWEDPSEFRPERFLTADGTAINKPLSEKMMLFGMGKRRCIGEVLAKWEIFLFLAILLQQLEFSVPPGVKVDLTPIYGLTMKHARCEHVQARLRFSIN
# T2 sequence (P33261 whole entry): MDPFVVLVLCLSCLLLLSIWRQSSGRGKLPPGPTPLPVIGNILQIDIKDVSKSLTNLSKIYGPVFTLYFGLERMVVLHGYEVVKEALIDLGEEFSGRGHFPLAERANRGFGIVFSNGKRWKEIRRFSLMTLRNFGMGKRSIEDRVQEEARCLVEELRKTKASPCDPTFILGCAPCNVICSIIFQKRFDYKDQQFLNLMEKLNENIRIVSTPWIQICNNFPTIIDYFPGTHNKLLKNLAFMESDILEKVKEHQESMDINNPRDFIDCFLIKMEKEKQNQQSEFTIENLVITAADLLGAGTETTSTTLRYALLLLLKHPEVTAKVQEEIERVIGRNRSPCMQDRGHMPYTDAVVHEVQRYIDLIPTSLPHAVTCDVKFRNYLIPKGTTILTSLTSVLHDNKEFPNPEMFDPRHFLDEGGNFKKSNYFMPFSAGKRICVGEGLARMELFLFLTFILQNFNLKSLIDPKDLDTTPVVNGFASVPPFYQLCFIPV
smiles,measurement,setting,value
"CN1CCN(c2nc(NCCN3CCOCC3)c3nc(Cl)c(NCCN4CCOCC4)nc3n2)CC1 [JB6121, 6-chloro-2-(4-methylpiperazin-1-yl)-N^4,N^7-bis(2-morpholinoethyl)pteridine-4,7-diamine]",logD,[1],0.995
same,"Cell Viability, Hep-G2 cells, % inhibition at 100 μM",[2],8.5%
same,CYP1A2 Mean % Control,[3],97.0%
same,CYP2C19 Mean % Control,[4],92.9%
same,CYP2C8 Mean % Control,[5],87.7%
same,CYP2D6 Mean % Control,[6],80.9%
